In PubChem BioAssay AID248 (DTP/NCI, 2004):
Several values for one entry are separate records, joined by “and”; a condition that tells them apart may be missing. Identical values can stand only once. Inconclusive results and toxic doses are left out. Rule as the data show it: active = T/C of 150% or more; inactive = T/C below 125%.

Test system: L1210 leukemia ip in BDF1 mice, survival T/C
Experiment: NCI In Vivo Anticancer Drug Screen. Data for tumor model L1210 Leukemia (intraperitoneal) in B6D2F1 (BDF1) mice
Details: endpoint: mean survival time, higher = longer survival
Summary of the method: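 Transplanted-tumor mice were given test agent; controls received vehicle only. Survival readings from the two groups were divided (treated over control).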

[1] = dose: 100.0 mg/kg/injection, schedule: Q01DX009 (ip), vehicle: saline with Tween-80
[2] = dose: 200.0 mg/kg/injection, schedule: Q01DX009 (ip), vehicle: saline with Tween-80
[3] = dose: 100.0 mg/kg/injection, schedule: Q01DX001 (ip), vehicle: carboxymethylcellulose (CMC)
[4] = dose: 100.0 mg/kg/injection, schedule: Q04DX002 (ip), vehicle: saline with Tween-80
[5] = dose: 200.0 mg/kg/injection, schedule: Q04DX002 (ip), vehicle: saline with Tween-80
[6] = dose: 400.0 mg/kg/injection, schedule: Q01DX009 (ip), vehicle: saline with Tween-80
[7] = dose: 400.0 mg/kg/injection, schedule: Q04DX002 (ip), vehicle: saline with Tween-80
[8] = dose: 100.0 mg/kg/injection, schedule: Q04DX002 (ip), vehicle: saline
[9] = dose: 200.0 mg/kg/injection, schedule: Q04DX002 (ip), vehicle: saline
[10] = dose: 100.0 mg/kg/injection, schedule: Q01DX001 (ip), vehicle: saline
[11] = dose: 200.0 mg/kg/injection, schedule: Q01DX001 (ip), vehicle: saline
[12] = dose: 400.0 mg/kg/injection, schedule: Q01DX001 (ip), vehicle: saline
[13] = dose: 100.0 mg/kg/injection, schedule: Q01DX009 (ip), vehicle: Klucel (hydroxypropylcellulose) (HPC)
[14] = dose: 200.0 mg/kg/injection, schedule: Q01DX009 (ip), vehicle: Klucel (hydroxypropylcellulose) (HPC)
[15] = dose: 400.0 mg/kg/injection, schedule: Q01DX009 (ip), vehicle: Klucel (hydroxypropylcellulose) (HPC)
[16] = dose: 100.0 mg/kg/injection, schedule: Q04DX003 (ip), vehicle: saline with Tween-80
[17] = dose: 200.0 mg/kg/injection, schedule: Q04DX003 (ip), vehicle: saline with Tween-80
[18] = dose: 400.0 mg/kg/injection, schedule: Q04DX003 (ip), vehicle: saline with Tween-80
[19] = dose: 100.0 mg/kg/injection, schedule: Q04DX003 (ip), vehicle: Klucel (hydroxypropylcellulose) (HPC)

Measured: T/C

CCCCC#C/C=C/CCCC
inactive: dose: 50.0 mg/kg/injection, schedule: Q01DX009 (ip), vehicle: saline with Tween-80 95 % of control | [1] 100 % of control | [2] 100 % of control

COC1CC(OC2OC(CO)C(O)C(O)C2O)/C(=C\C#N)C(O)C1OC (centres undefined)
inactive: dose: 50.0 mg/kg/injection, schedule: Q01DX009 (ip), vehicle: saline 106 % of control | dose: 50.0 mg/kg/injection, schedule: Q04DX003 (ip), vehicle: saline 103 % of control | dose: 100.0 mg/kg/injection, schedule: Q01DX009 (ip), vehicle: saline 103 % of control | dose: 100.0 mg/kg/injection, schedule: Q04DX003 (ip), vehicle: saline 100 % of control | dose: 200.0 mg/kg/injection, schedule: Q01DX009 (ip), vehicle: saline 101 % of control | dose: 200.0 mg/kg/injection, schedule: Q04DX003 (ip), vehicle: saline 101 % of control

CCOC(=O)c1c(C)c2c(n1C)CCC(C#N)C2=O (centres undefined)
inactive: [3] 103 % of control | dose: 200.0 mg/kg/injection, schedule: Q01DX001 (ip), vehicle: carboxymethylcellulose (CMC) 97 % of control | dose: 400.0 mg/kg/injection, schedule: Q01DX001 (ip), vehicle: carboxymethylcellulose (CMC) 98 % of control

Cc1ccc(NC(=O)NCCCl)c2c1CCC2
inactive: dose: 100.0 mg/kg/injection, schedule: Q01DX001 (ip), vehicle: Klucel (hydroxypropylcellulose) (HPC) 95 % of control | dose: 200.0 mg/kg/injection, schedule: Q01DX001 (ip), vehicle: Klucel (hydroxypropylcellulose) (HPC) 92 % of control | dose: 400.0 mg/kg/injection, schedule: Q01DX001 (ip), vehicle: Klucel (hydroxypropylcellulose) (HPC) 96 % of control

CCC1(c2ccccc2)C(=O)N(CCl)C(=O)N(CCl)C1=O
inactive: [1] 93 % of control | [4] 103 % of control | [2] 87 % of control | [5] 92 % of control | [6] 90 % of control | [7] 95 % of control

OC/C=C/c1cccs1
inactive: [8] 98 % of control | [9] 95 % of control

CC(=O)OCC(C)c1ccccc1 (centres undefined)
inactive: [8] 96 % of control | [9] 103 % of control | dose: 400.0 mg/kg/injection, schedule: Q04DX002 (ip), vehicle: saline 96 % of control

CC(C)(Oc1ccc(Cl)cc1)C(=O)O
inactive: [10] 101 % of control | [11] 101 % of control | [12] 98 % of control

C1=Nc2ccccc2/C1=C/c1ccc2c(c1)OCO2
inactive: dose: 100.0 mg/kg/injection, schedule: Q01DX009 (ip), vehicle: carboxymethylcellulose (CMC) 97 % of control and 102 % of control | dose: 100.0 mg/kg/injection, schedule: Q04DX002 (ip), vehicle: carboxymethylcellulose (CMC) 93 % of control and 102 % of control | dose: 100.0 mg/kg/injection, schedule: Q04DX003 (ip), vehicle: carboxymethylcellulose (CMC) 98 % of control | dose: 200.0 mg/kg/injection, schedule: Q01DX009 (ip), vehicle: carboxymethylcellulose (CMC) 96 % of control and 87 % of control | dose: 200.0 mg/kg/injection, schedule: Q04DX002 (ip), vehicle: carboxymethylcellulose (CMC) 93 % of control and 98 % of control | dose: 200.0 mg/kg/injection, schedule: Q04DX003 (ip), vehicle: carboxymethylcellulose (CMC) 93 % of control | dose: 400.0 mg/kg/injection, schedule: Q01DX009 (ip), vehicle: carboxymethylcellulose (CMC) 93 % of control and 94 % of control | dose: 400.0 mg/kg/injection, schedule: Q04DX002 (ip), vehicle: carboxymethylcellulose (CMC) 104 % of control and 107 % of control | dose: 400.0 mg/kg/injection, schedule: Q04DX003 (ip), vehicle: carboxymethylcellulose (CMC) 96 % of control

COc1cc2c(cc1OC)/C(=N/N)CCC2
inactive: dose: 50.0 mg/kg/injection, schedule: Q04DX003 (ip), vehicle: Klucel (hydroxypropylcellulose) (HPC) 95 % of control

CC1(C)C(C)(C)C12C=CC=C2
inactive: dose: 25.0 mg/kg/injection, schedule: Q01DX001 (ip), vehicle: saline 104 % of control | dose: 50.0 mg/kg/injection, schedule: Q01DX001 (ip), vehicle: saline 102 % of control | [10] 101 % of control

ClCC1=NCCN1
inactive: dose: 12.5 mg/kg/injection, schedule: Q04DX002 (ip), vehicle: Klucel (hydroxypropylcellulose) (HPC) 97 % of control | dose: 25.0 mg/kg/injection, schedule: Q04DX002 (ip), vehicle: Klucel (hydroxypropylcellulose) (HPC) 97 % of control | dose: 50.0 mg/kg/injection, schedule: Q04DX002 (ip), vehicle: Klucel (hydroxypropylcellulose) (HPC) 97 % of control

O=C(Nc1ccc(Cl)cc1)Nc1ncc(Cl)s1
inactive: [13] 94 % of control | [14] 96 % of control | [15] 89 % of control

Clc1ccc(-c2nnc3c4ccccc4ccn23)cc1
inactive: [10] 104 % of control | [11] 93 % of control | [12] 98 % of control

C=CCN1C(=O)NC(=O)C1c1ccsc1 (centres undefined)
inactive: [10] 90 % of control | [11] 93 % of control | [12] 93 % of control

C=C(Br)S(=O)(=O)C(=C)Br
inactive: dose: 6.25 mg/kg/injection, schedule: Q04DX002 (ip), vehicle: alcohol 101 % of control | dose: 12.5 mg/kg/injection, schedule: Q04DX002 (ip), vehicle: alcohol 111 % of control | dose: 25.0 mg/kg/injection, schedule: Q04DX002 (ip), vehicle: alcohol 101 % of control

CN(C)P(=O)(c1ccccc1)c1ccccc1
inactive: [4] 112 % of control | [5] 102 % of control | [7] 94 % of control

COc1cc(C(C)=O)cc(OC)c1OC
inactive: [16] 102 % of control | [17] 96 % of control | [18] 98 % of control

COC1=C(OC)C(=O)c2c(c(=O)c3ccccc3n2C)C1=O
inactive: dose: 25.0 mg/kg/injection, schedule: Q01DX001 (ip), vehicle: carboxymethylcellulose (CMC) 104 % of control | dose: 50.0 mg/kg/injection, schedule: Q01DX001 (ip), vehicle: carboxymethylcellulose (CMC) 95 % of control | [3] 101 % of control

CSC(=O)Oc1ccc([N+](=O)[O-])cc1
inactive: [1] 106 % of control | [16] 104 % of control | [2] 96 % of control | [17] 100 % of control | [6] 101 % of control | [18] 91 % of control

CCCCCCCCCCCCCCCCN1CNC(=O)NC1
inactive: dose: 100.0 mg/kg/injection, schedule: Q01DX001 (ip), vehicle: other 98 % of control | dose: 200.0 mg/kg/injection, schedule: Q01DX001 (ip), vehicle: other 98 % of control | dose: 400.0 mg/kg/injection, schedule: Q01DX001 (ip), vehicle: other 95 % of control

CCCCCCCCOc1ccc(C)cc1
inactive: [13] 107 % of control | [14] 94 % of control | [15] 97 % of control

O=C(O)/C=C\C(=O)Nc1ccc(O)cc1
inactive: [19] 102 % of control | dose: 200.0 mg/kg/injection, schedule: Q01DX Z (ip), vehicle: saline 120 % of control | dose: 200.0 mg/kg/injection, schedule: Q04DX003 (ip), vehicle: Klucel (hydroxypropylcellulose) (HPC) 110 % of control | dose: 400.0 mg/kg/injection, schedule: Q04DX003 (ip), vehicle: Klucel (hydroxypropylcellulose) (HPC) 110 % of control | dose: 675.0 mg/kg/injection, schedule: Q01DX Z (ip), vehicle: saline 100 % of control

CNCCC(CNC1=NCCN1)(c1cccc2ccccc12)C(C)C (centres undefined)
inactive: [19] 94 % of control
